In data set [1] the test system is L6. In words: Cytotoxicity against rat L6 cells. In kind it is cell-based.
Data set [2] relates to Plasmodium falciparum. In words: Antiparasitic activity against intraerythrocytic form of chloroquine/pyrimethamine-resistant Plasmodium falciparum K1. In kind it is functional.
Data set [3] deals with Trypanosoma cruzi. Kind of data set: Antiparasitic activity against Trypanosoma cruzi Tulahuen C4 intracellular amastigotes infected in rat L6 cells. In kind it is functional, cell-based.
Data set [4] can be described thus: Selectivity index, ratio of IC50 for rat L6 cells to IC50 for intraerythrocytic form of chloroquine/pyrimethamine-resistant Plasmodium falciparum K1 infected in human RBC. In kind it is toxicity. Particulars: read-out: Ratio IC50.
The test system of data set [5] is Leishmania donovani. In words: Antiparasitic activity against Leishmania donovani MHOM-ET-67/L82 axenic amastigotes. In kind it is functional.
A short description of data set [6]: Selectivity index, ratio of IC50 for rat L6 cells to IC50 for Trypanosoma cruzi Tulahuen C4 intracellular amastigotes infected in rat L6 cells. In kind it is toxicity, cell-based. Particulars: read-out: Ratio IC50.
A short description of data set [7]: Selectivity index, ratio of IC50 for rat L6 cells to IC50 for Leishmania donovani MHOM-ET-67/L82 axenic amastigotes. In kind it is toxicity. Particulars: read-out: Ratio IC50.
The test system of data set [8] is Trypanosoma cruzi. In words: Antiparasitic activity against Trypanosoma cruzi Tulahuen C4 intracellular amastigotes infected in rat L6 cells assessed as growth inhibition at 4.8 ug/ml after 96 hrs by CPRG/Nonidet reagent based photometric analysis relative to control. In kind it is functional. The settings on record: Tulahuen C4, L6, 96 h, read-out: GI.
Data set [9] has as its system Trypanosoma cruzi. In words: Antiparasitic activity against Trypanosoma cruzi Tulahuen C4 intracellular amastigotes infected in rat L6 cells assessed as growth inhibition at 0.8 ug/ml after 96 hrs by CPRG/Nonidet reagent based photometric analysis relative to control. Particulars: Tulahuen C4, L6, 96 h, read-out: GI. In kind it is functional.
Data set [10] concerns Plasmodium falciparum. Kind of data set: Antiparasitic activity against intraerythrocytic form of chloroquine/pyrimethamine-resistant Plasmodium falciparum K1 infected in human RBC preincubated for 48 hrs followed by [3H]-hypoxanthine addition measured after 24 hrs by liquid scintillation counting analysis. In kind it is functional.
In data set [11] the test system is Leishmania donovani. In words: Antiparasitic activity against Leishmania donovani MHOM-ET-67/L82 axenic amastigotes assessed as growth inhibition at 4.8 ug/ml after 72 hrs by resazurin dye-based fluorometric analysis relative to control. Particulars: MHOM-ET-67/L82, 72 h, read-out: GI. In kind it is functional. For orientation: Resazurin is reduced to fluorescent resorufin, in cell work by metabolically active cells.

Data set [12] relates to L6. Kind of data set: Cytotoxicity against rat L6 cells assessed as cell viability after 72 hrs by Alamar blue assay. In kind it is cell-based. Particulars: L6, 72 h.
For data set [13], the system named is Plasmodium falciparum. Kind of data set: Antiparasitic activity against intraerythrocytic form of chloroquine/pyrimethamine-resistant Plasmodium falciparum K1 infected in human RBC assessed as growth inhibition at 4.8 ug/ml preincubated for 48 hrs followed by [3H]-hypoxanthine addition measured after 24 hrs by liquid scintillation counting analysis relative to control. In kind it is functional. Particulars: read-out: GI.

The subject of data set [14] is Trypanosoma cruzi. In words: Antiparasitic activity against Trypanosoma cruzi Tulahuen C4 intracellular amastigotes infected in rat L6 cells after 96 hrs by CPRG/Nonidet reagent based photometric analysis. In kind it is functional, cell-based. Particulars: Tulahuen C4, L6, 96 h.
Data set [15] relates to Trypanosoma brucei rhodesiense. Kind of data set: Antiparasitic activity against Trypanosoma brucei rhodesiense STIB 900 trypomastigote bloodstream form assessed as growth inhibition at 0.8 ug/ml after 72 hrs by resazurin dye-based fluorometric analysis relative to control. In kind it is functional. Particulars: STIB 900, 72 h, read-out: GI.
Data set [16] has as its system Plasmodium falciparum. Kind of data set: Antiparasitic activity against intraerythrocytic form of chloroquine/pyrimethamine-resistant Plasmodium falciparum K1 infected in human RBC assessed as growth inhibition at 0.8 ug/ml preincubated for 48 hrs followed by [3H]-hypoxanthine addition measured after 24 hrs by liquid scintillation counting analysis relative to control. The settings on record: read-out: GI. In kind it is functional.

For data set [17], the system named is Leishmania donovani. Kind of data set: Antiparasitic activity against Leishmania donovani MHOM-ET-67/L82 axenic amastigotes assessed as growth inhibition at 0.8 ug/ml after 72 hrs by resazurin dye-based fluorometric analysis relative to control. In kind it is functional. Particulars: MHOM-ET-67/L82, 72 h, read-out: GI.
The subject of data set [18] is Leishmania donovani. Kind of data set: Antiparasitic activity against Leishmania donovani MHOM-ET-67/L82 axenic amastigotes after 72 hrs by Alamar blue assay. Particulars: MHOM-ET-67/L82, 72 h. In kind it is functional.
Data set [19] concerns Trypanosoma brucei rhodesiense. In words: Antiparasitic activity against Trypanosoma brucei rhodesiense STIB 900 trypomastigote bloodstream form assessed as growth inhibition at 4.8 ug/ml after 72 hrs by resazurin dye-based fluorometric analysis relative to control. The settings on record: STIB 900, 72 h, read-out: GI. In kind it is functional.

Structures are written as SMILES.

The term IC50 denotes the concentration needed to halve the response being measured.

`O=[N+]([O-])c1ccc(S(=O)(=O)N2CCCc3ccccc32)cc1`: the IC50 with L6 [1] was 248 µM; in the data set on Plasmodium falciparum [2], 8.31 µM; in the data set on Trypanosoma cruzi [3], 11.4 µM; with Leishmania donovani [5], > 271 µM. Also, the values for the selectivity ratio in [4] and in [6] were 29.9 and 21.7, respectively.
As for `O=S(=O)(c1ccc(Cl)cc1)N1CCCc2ccccc21`, the IC50 with L6 [1] came out at 20.5 µM; in the data set with Plasmodium falciparum [2], 8.43 µM; in the data set with Trypanosoma cruzi [3] it was 16 µM; in the data set with Leishmania donovani [5], 18.9 µM. Besides, the selectivity ratio was 2.43 in [4], 1.28 in [6] and 1.09 in data set [7].
For the compound `CC1CCc2ccccc2N1S(=O)(=O)c1ccc(C(C)(C)C)cc1` (stereo not given), the inhibition of growth at 4.8 µg/mL in the data set on Trypanosoma cruzi [8] is 100%; in the data set on Leishmania donovani [11] it was 100%; in the data set with Plasmodium falciparum [13], 100%; in data set [19], 0%. Besides, the inhibition of growth at 0.8 µg/mL was determined as 28% in the data set on Trypanosoma cruzi [9], 8.2% in [15], 79.9% with Plasmodium falciparum [16] and 62% in the data set on Leishmania donovani [17]. The IC50 in the data set with Plasmodium falciparum [10] worked out at 1.5 µM; with L6 [12], 6.81 µM; in the data set with Trypanosoma cruzi [14] it was 6.06 µM; with Leishmania donovani [18], 2.16 µM. In addition, the selectivity ratio in data set [4] amounted to 4.57; in data set [6] it was 1.12; in data set [7], 3.15.
Turning to `O=S(=O)(c1ccc(Br)cc1)N1CCCc2ccccc21`, the half-maximal inhibitory concentration (IC50) with L6 [1] amounted to 7.36 µM; with Plasmodium falciparum [2] it was 6.65 µM; in the data set with Trypanosoma cruzi [3] it was 13.8 µM; in the data set on Leishmania donovani [5], 21.4 µM. Also, the selectivity ratio in [4] was 1.11; in data set [6], 0.53; in [7], 0.34.
`CC1Cc2ccccc2N1S(=O)(=O)c1ccc(C(C)(C)C)cc1` (stereo not given): the inhibition of growth at 4.8 µg/mL is 100% in the data set on Trypanosoma cruzi [8], 100% with Leishmania donovani [11], 99.9% with Plasmodium falciparum [13] and 6.4% in data set [19]. Besides, the inhibition of growth at 0.8 µg/mL with Trypanosoma cruzi [9] turned out to be 7.7%; in [15], 0%; with Plasmodium falciparum [16], 52.8%; with Leishmania donovani [17], 53.3%. The IC50 was found to be 1.5 µM in the data set with Plasmodium falciparum [10], 12.2 µM in the data set on L6 [12], 6.98 µM in the data set with Trypanosoma cruzi [14] and 1.53 µM with Leishmania donovani [18]. For the same compound, the selectivity ratio in data set [4] is 8.1; in data set [6], 1.74; in data set [7], 7.95.

Source of the values: ChEMBL document CHEMBL4043153, “Lead selection of antiparasitic compounds from a focused library of benzenesulfonyl derivatives of heterocycles” (Bioorg Med Chem Lett, 2017).
